Experimental data reported in the PolyMetriX glass transition set.
± gives the standard deviation of the reports.

glass transition temperature	Compound
292.50 ± 9.3 °C	*C(=O)c1ccc2c(c1)C(=O)N(c1ccc(Cc3ccc(N4C(=O)c5ccc(*)cc5C4=O)cc3)cc1)C2=O (repeat unit)
72.00 °C	*CCCCCCCCCCOc1ccc(/C=N/c2ccc(-c3ccc(/N=C/c4ccc(O*)cc4O)c(OC)c3)cc2OC)c(O)c1 (repeat unit)
392.00 °C	*c1ccc(-c2cnc3cc4ncc(*)nc4cc3n2)cc1 (repeat unit)
120.00 °C	*Oc1ccc(C(=O)c2ccc(C(=O)c3ccc(Oc4ccc(Cc5ccc(*)cc5)cc4)cc3)cc2)cc1 (repeat unit)
108.00 °C	*c1ccc(C(C#N)(C(=O)OCC(C)C)C(*)(C#N)C(=O)OCC(C)C)cc1 (repeat unit)
3.00 °C	*OC(=O)CCCCCCCCC(=O)OC1COC2C(*)COC12 (repeat unit)
25.00 °C	*O[Si](*)(C)CCCCCCCCCCC(=O)Oc1ccc(C(=O)OCCOc2ccc(C(=O)OC3CCC4(C)C(=CCC5C4CCC4(C)C(C(C)CCCC(C)C)CCC54)C3)cc2)cc1 (repeat unit)
270.00 °C	*Nc1ccc(NC(=O)c2ccc(C(c3ccc(C(*)=O)c(C(=O)OCC)c3)(C(F)(F)F)C(F)(F)F)cc2C(=O)OCC)cc1 (repeat unit)
78.50 °C	*OC(=O)OCC(O)C(O)COC(=O)OC1COC2C(*)COC12 (repeat unit)
263.00 °C	*Oc1ccc(C(=O)NNC(=O)c2ccc(*)cc2)cc1 (repeat unit)
159.00 °C	*Nc1cc(NC(=O)CCCCC(*)=O)cc(-c2nnc(-c3ccccn3)o2)c1 (repeat unit)
224.00 °C	*CCN(CCN1C(=O)c2ccc(C(c3ccc4c(c3)C(=O)N(*)C4=O)(C(F)(F)F)C(F)(F)F)cc2C1=O)c1ccc(/C=C/C2=CC(=C(C#N)C#N)CC(C)(C)C2)cc1 (repeat unit)
241.00 ± 12 °C	*c1ccc(Oc2ccc(N3C(=O)c4ccc(Oc5ccc(Oc6ccc7c(c6)C(=O)N(*)C7=O)cc5)cc4C3=O)cc2)cc1 (repeat unit)
316.50 °C	*C(=O)c1ccc2c(c1)C(=O)N(c1ccc(C(C)(C)c3cccc(C(C)(C)c4ccc(N5C(=O)c6ccc(*)cc6C5=O)cc4)c3)cc1)C2=O (repeat unit)
222.00 °C	*C(=O)Nc1ccc(Cc2ccc(NC(=O)c3ccc(N4C(=O)c5ccc(*)cc5C4=O)cc3)cc2)cc1 (repeat unit)
212.00 °C	*c1ccc(Oc2ccc(N3C(=O)c4ccc(Oc5ccc(Sc6ccc(Oc7ccc8c(c7)C(=O)N(*)C8=O)cc6)cc5)cc4C3=O)cc2)cc1 (repeat unit)
26.40 °C	*c1ccc(-c2sc(-c3ccc(-c4cc(SCCCC)c(*)s4)cc3)cc2SCCCC)cc1 (repeat unit)

glass transition temperature	Compound
100.00 °C	*C1=C(c2ccc(-c3ccc4c(c3)C(CCCCCC)(CCCCCC)c3cc(-c5ccc(*)cc5)ccc3-4)cc2)C(=O)N(CCCCCCCCCCCC)C1=O (repeat unit)
112.00 °C	*CCCCCCNC(=O)c1ccc(C(=O)N*)c(Oc2ccc(Cl)cc2)c1 (repeat unit)
-43.00 °C	*O[Si](C)(C)O[Si](C)(C)O[Si](C)(C)O[Si](C)(C)OC1=C(*)c2cccc3cccc1c23 (repeat unit)
178.50 °C	*c1ccc(OCCOc2cccc(N3C(=O)c4ccc(Oc5ccc6c(c5)C(=O)N(*)C6=O)cc4C3=O)c2)cc1 (repeat unit)
230.00 °C	*CC(*)c1ccc(B(Oc2ccc(-c3ccc(N(C)C)cc3)c3cccnc23)c2ccc(C(C)(C)C)cc2)cc1 (repeat unit)
38.00 °C	*O[Si](*)(C)CCCOc1ccc(C(=O)Oc2ccc(C(=O)Oc3ccc(OC)cc3)cc2)cc1 (repeat unit)
263.00 °C	*c1ccc(Oc2ccc(Oc3ccc(Oc4ccc(-c5nc6ccc(-c7ccc8nc(*)c(-c9ccccc9)nc8c7)cc6nc5-c5ccccc5)cc4)cc3)cc2)cc1 (repeat unit)
19.50 °C	*CC(*)C(=O)OCCCCCCOc1ccc(C(=O)Oc2ccc(C#N)cc2)cc1 (repeat unit)
15.00 °C	*O[Si](*)(C)CCCOc1ccc(C(=O)Oc2ccc(OCCCCCC)cc2)cc1 (repeat unit)
283.00 °C	*C(=O)Nc1ccc(Oc2ccc(C3(c4ccc(Oc5ccc(NC(=O)c6ccc7c(c6)C(=O)N(c6ccc(Oc8ccc(S(=O)(=O)c9ccc(Oc%10ccc(N%11C(=O)c%12ccc(*)cc%12C%11=O)cc%10)cc9)cc8)cc6)C7=O)cc5)cc4)NC(=O)c4ccccc43)cc2)cc1 (repeat unit)
95.00 °C	*CCOc1ccc(OC(=O)c2ccc(C(=O)Oc3ccc(O*)cc3)c(OCCCCC)c2)cc1 (repeat unit)
69.40 °C	*CCCCCCCCOc1c(OC)cc(/C=C/c2ccc(/C=C/c3cc(OC)c(O*)c(OC)c3)cc2)cc1OC (repeat unit)
201.00 °C	*c1ccc(Oc2ccc(C(=O)c3ccc(Oc4ccc(N5C(=O)c6ccc(Oc7cccc(Oc8ccc9c(c8)C(=O)N(*)C9=O)c7)cc6C5=O)cc4)cc3)cc2)cc1 (repeat unit)
266.00 °C	*CC(=O)Nc1ccc(Cc2ccc(NC(=O)c3ccc4c(c3)C(=O)N(*)C4=O)cc2)cc1 (repeat unit)
43.00 °C	*CC(*)(C)C(=O)OCCCCCC(=O)Oc1ccc(OC(=O)c2ccc(OCC)cc2)cc1 (repeat unit)
280.00 °C	*c1ccc2c(c1)C(=O)N(c1c(C)cc(C)c(C(=O)c3cccc(N4C(=O)c5ccc(C(*)(C(F)(F)F)C(F)(F)F)cc5C4=O)c3)c1C)C2=O (repeat unit)

Compound	glass transition temperature
*C(F)(F)C(*)(F)OC(F)(F)F (repeat unit)	-5.00 °C
*CCCCCCCCC(Cl)C(*)Cl (repeat unit)	-30.00 °C
*CC(*)(CC(=O)OCC)C(=O)OCC (repeat unit)	65.50 °C
*N=P(*)(C)c1ccccc1 (repeat unit)	37.00 °C
*c1cccc(P(=O)(c2ccccc2)c2cccc(-n3c(=O)c4cc5c(=O)n(*)c(=O)c5c(-c5ccccc5)c4c3=O)c2)c1 (repeat unit)	325.00 °C
*C(=O)NCCNC(=O)c1ncn(C)c1* (repeat unit)	189.00 °C
*CC(CS(C)(=O)=O)O* (repeat unit)	85.00 °C
*/C=C/C1CC(*)C(C#N)(CC)C1 (repeat unit)	134.00 °C
*c1ccc(Oc2ccc(Oc3ccc(P(=O)(c4ccccc4)c4ccc(Oc5ccc(Oc6ccc(-c7nc8ccc(-c9ccc%10nc(*)oc%10c9)cc8o7)cc6)cc5)cc4)cc3)cc2)cc1 (repeat unit)	223.00 °C
*c1cccc(Oc2ccc(P(=O)(c3ccccc3)c3ccccc3)c(Oc3cccc(N4C(=O)c5ccc(Oc6ccc7c(c6)C(=O)N(*)C7=O)cc5C4=O)c3)c2)c1 (repeat unit)	212.00 °C
*CCc1ccc(*)cc1 (repeat unit) [Poly(p-xylene)]	70 ± 10 °C
*CC(*)OC(=O)c1cccc(Br)c1 (repeat unit)	57.50 °C
*Oc1cccc(NC(=O)c2ccc(P(=O)(c3ccccc3)c3ccc(C(=O)Nc4cccc(Oc5ccc(P(=O)(c6ccccc6)c6ccc(*)cc6)cc5)c4)cc3)cc2)c1 (repeat unit)	235.00 °C
